Source: ChEMBL document CHEMBL3988181, “GlaxoSmithKline Published Kinase Inhibitor Set 2 Onchocerca lienalis Screening Data”

assay: GSK PKIS2: Screen against O. lienalis microfilariae, single point, at 3.1uM to assess reduction in motility. Compounds were also tested for cytotoxicity against Rhesus Monkey LLCMK2 cells.; assay type: functional, Onchocerca lienalis, LLC-MK2; settings: CELL_LINE LLCMK2; CELL_SUPPLIER ECACC; CONC 3.1 uM; ORGANISM_SUPPLIER Extracted from peri-umbilical skin obtained from naturally infected cattle in the UK; temperature 37 degree C

| SMILES | MOTILITY REDUCTION/CYTOTOXICITY [%] |
| --- | --- |
| O=C(NCc1cccs1)c1cc(C(=O)c2c(Cl)cccc2Cl)c[nH]1 | 0 |
| COc1cccc(C2=C(N(C)c3ccccc3)C(=O)NC2=O)c1 | 0 |
| O=C1NC(=O)C(N2CCc3ccccc32)=C1c1ccccc1Cl | 20 |
| COc1ccc(C2=C(Nc3cccc(C(=O)O)c3)C(=O)NC2=O)cc1 | 20 |
| O=C1NC(=O)C(c2ccccc2Cl)=C1Nc1cccc(Cl)c1 | 0 |
| O=C1NC(=O)C(c2ccc(Cl)cc2)=C1Nc1ccc(O)cc1 | 0 |
| COc1cccc(C2=C(Nc3cc(Cl)c(O)c(Cl)c3)C(=O)NC2=O)c1 | 0 |
| COc1ccc(C2=C(Nc3cccc(Cl)c3)C(=O)NC2=O)cc1 | 0 |
| COc1cccc(C2=C(Nc3ccc(SC)cc3)C(=O)NC2=O)c1 | 0 |
| COc1ccccc1C1=C(Nc2cccc(O)c2)C(=O)NC1=O | 100 |
| CSc1ccc(NC2=C(c3cccc(Cl)c3)C(=O)NC2=O)cc1 | 0 |
| O=C1NC(=O)C(c2ccc(Cl)cc2)=C1Nc1cccc(Cl)c1 | 33.4 |
| Nc1nc(Nc2ccccc2)cc(-c2ccc3c(N)n[nH]c3c2)n1 | 0 |
| CS(=O)(=O)c1ccccc1-c1nc(-c2ccc(F)cc2)c(-c2ccncc2)[nH]1 | 33.4 |
| COCCNC(=O)c1ccc(-c2cc(C(=O)NC3CC3)cc(F)c2C)cc1 | 0 |
| CN(c1ccc(NC(=O)Nc2cc(C(F)(F)F)ccc2F)cc1)c1ccnc(Nc2ccc(S(N)(=O)=O)cc2)n1 | 100 |
| CCn1c(-c2ccoc2)nc2cnccc21 | 0 |
| CN(C(=O)c1ccc(-c2cc(-c3c[nH]nc3-c3ccccn3)ccn2)cc1)C1CCOCC1 | 0 |
| COc1ccc2cc(-c3nc(-c4ccccc4C(C)C)[nH]c3-c3ccncc3)ccc2c1 | 100 |
| NC(=O)Nc1sc(-c2ccc(F)cc2)cc1C(N)=O | 33.4 |
| O=C(Nc1n[nH]c2nc(-c3ccccc3)c(Br)cc12)C1CC1 | 20 |
| Nc1n[nH]c2cnc(-c3ccccc3)cc12 | 0 |
| O=C(Nc1n[nH]c2cc(-c3ccoc3)ccc12)C1CC1 | 13.4 |
| CCCC(=O)Nc1n[nH]c2ncc(-c3cccc4ccccc34)cc12 | 0 |

| SMILES | MOTILITY REDUCTION/CYTOTOXICITY [%] |
| --- | --- |
| O=C(Nc1n[nH]c2nc(-c3ccccc3)ccc12)C1CC1 | 0 |
| O=C(Nc1n[nH]c2nc(-c3ccccc3O)ccc12)C1CC1 | 0 |
| O=C(Nc1n[nH]c2cc(-c3ccsc3)ccc12)C1CC1 | 0 |
| O=C(Nc1n[nH]c2cc(-c3cccc(F)c3)ccc12)C1CC1 | 0 |
| Cc1ccc(C)c(Oc2nccc(-c3c(-c4ccc(F)cc4)ncn3C3CCNCC3)n2)c1 | 26.7 |
| CC(=O)Nc1n[nH]c2ncc(-c3ccccc3)cc12 | 0 |
| CC(C)(C)c1ccc(-n2cnc3c(N)ncnc32)cc1 | 0 |
| Nc1ncnc2c1ncn2-c1cccc2ccccc12 | 0 |
| COc1ccc(-n2cnc3c(N)ncnc32)cc1 | 0 |
| O=C(Nc1n[nH]c2nc(-c3ccco3)c(Br)cc12)C1CCN(Cc2ccccc2)C1 (configuration not stated) | 33.4 |
| Cc1cc(-c2c(-c3ccc(F)cc3)ncn2CCCN2CCOCC2)nc(N)n1 | 0 |
| CCOc1nccc(-c2c(-c3ccc(F)cc3)ncn2C2CCNCC2)n1 | 0 |
| Nc1nccc(-c2c(-c3ccc(F)cc3)ncn2C2CCN(Cc3ccccc3)CC2)n1 | 0 |
| COc1cccc(C2=C(Nc3cccc(C(=O)O)c3)C(=O)NC2=O)c1 | 0 |
| CN1C(=O)C(Nc2ccc(Cl)c(C(=O)O)c2)=C(c2ccc(Cl)cc2)C1=O | 0 |
| O=C1NC(=O)C(c2ccc(Cl)cc2)=C1Nc1cccc(O)c1 | 13.4 |
| COc1cccc(C2=C(Nc3ccc(Cl)c(C(=O)O)c3)C(=O)NC2=O)c1 | 0 |
| CN1C(=O)C(Nc2cc(Cl)c(O)c(Cl)c2)=C(c2ccc(Cl)cc2)C1=O | 0 |
| O=C1NC(=O)C(c2ccccc2)=C1Nc1cccc(O)c1 | 0 |
| O=C1NC(=O)C(c2ccccc2Cl)=C1Nc1cccc(C(=O)O)c1 | 0 |
| CCn1c(-c2ccccc2)nc2cnccc21 | 0 |
| Fc1ccc(Nc2nccc(-c3c(-c4ccc(Cl)cc4)nn4ncccc34)n2)cc1F | 0 |
| FC(F)(F)c1cc(Br)cc(Nc2nccc(-c3cnn4ncccc34)n2)c1 | 46.7 |
| FC(F)(F)c1ccc(-c2nn3ncccc3c2-c2ccnc(Nc3cccc(C(F)(F)F)c3)n2)cc1 | 0 |

| SMILES | MOTILITY REDUCTION/CYTOTOXICITY [%] |
| --- | --- |
| CCn1c(-c2cccnc2O)nc2cnccc21 | 13.4 |
| CN1CCN(CCNc2nc3ccc(Oc4ccc(NC(=O)Nc5cc(C(F)(F)F)ccc5F)cc4)cc3[nH]2)CC1 | 0 |
| Nc1ncnc2scc(-c3ccc(NC(=O)Cc4cc(F)ccc4F)cc3)c12.O=C(O)C(F)(F)F | 40 |
| O=C(Nc1n[nH]c2nc(-c3nccs3)c(Br)cc12)C1CCCC1 | 20 |
| COc1ccccc1-c1ccc2c(NC(=O)C3CC3)n[nH]c2n1 | 0 |
| O=C(Nc1n[nH]c2cc(-c3ccco3)ccc12)C1CC1 | 0 |
| COc1ccc(NC(=O)c2ccoc2)cc1-c1ccc(C(=O)NCC2CC2)cc1 | 13.4 |
| O=C(NCC1CC1)c1ccc(-c2cc(C(=O)NC3CC3)ccc2F)cc1 | 0 |
| Cc1ccccc1COc1cc(-n2cnc3cc(Cl)ccc32)sc1C(N)=O | 0 |
| Fc1ccc(-c2nn3cccc(F)c3c2-c2ccncc2)cc1 | 0 |
| CN(C)CC(O)COc1ccc(Nc2nccc(-c3cnn4nc(N5CCOCC5)ccc34)n2)cc1 (configuration not stated) | 0 |
| COc1ccc(C)c(Nc2ccnc(Nc3ccc(-c4cnc[nH]4)cc3)n2)c1 | 0 |
| Cc1csc(-c2nc(Nc3ccncc3)c3ccccc3n2)n1 | 33.4 |
| CN(c1ccc(NC(=O)Nc2cccc(Cl)c2)cc1)c1ccnc(N)n1 | 13.4 |
| Cc1cccc(-c2nc(Nc3ccc4ncsc4c3)c3ccccc3n2)n1 | 100 |
| Cc1cccc(-c2nc(Nc3ccncc3)c3sccc3n2)n1 | 46.7 |
| Cc1cccc(-c2nc(Nc3cccc(C(N)=O)c3)c3ccccc3n2)n1 | 46.7 |
| Clc1cccc(-c2nc(Nc3ccncc3)c3ccccc3n2)c1 | 0 |
| CCC(CC)(CC)n1cnc2c(N)ncnc21 | 0 |
| O=C(O)c1ccc(-c2nc(-c3ccc(F)cc3)c(-c3ccncc3)[nH]2)cc1 | 0 |
| COc1cccc(-n2cnc3c(N)ncnc32)c1 | 0 |
| CCCCCc1nc2c(N)ncnc2n1CCCCC | 0 |
| Oc1ccc(-c2[nH]c(-c3ccccc3)nc2-c2ccncc2)cc1 | 0 |
| Fc1ccc(-c2ncn(C3CCNCC3)c2-c2ccnc(Nc3ccccc3)n2)cc1 | 0 |
